The values that follow come from PubChem BioAssay (NCI).

Where “and” joins values, the source holds several entries; their conditions need not be identical. Equal values may be shown once.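 Interpolation was linear, between the two tested concentrations surrounding the appropriate level; five concentrations were tested over 48 hours in 96-well plates. Here, GI50 denotes the concentration required for 50% inhibition of growth. TGI denotes the concentration required for complete inhibition of growth.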

Test systems include OVCAR-4 ovarian; UACC-257 melanoma; CCRF-CEM leukemia; SK-MEL-2 melanoma; HOP-92 NSCLC; HOP-62 NSCLC; PC-3 prostate; 786-0 renal; EKVX NSCLC; SNB-75 CNS.
Holding throughout (test): DTP human tumour cell line panel, 48 h

Regarding `CN1CCN(c2nc(NCCCCNc3ccnc4cc(Cl)ccc34)c3ccccc3n2)CC1`, the GI50 in the experiment on OVCAR-4 ovarian was 2140 nM; with UACC-257 melanoma it was 2030 nM; in the experiment with CCRF-CEM leukemia it was 2620 nM; with SK-MEL-2 melanoma, 2110 nM; with HOP-92 NSCLC, 1660 nM; in the experiment on HOP-62 NSCLC, 5150 nM. Further, the GI50 in the experiment with PC-3 prostate was 4440 nM; in the experiment with 786-0 renal it was 1650 nM; in the experiment with EKVX NSCLC, 16400 nM; in the experiment on SNB-75 CNS, 2160 nM. Also, the total growth inhibition concentration (TGI) came to 6990 nM in the experiment with OVCAR-4 ovarian; 3900 nM in the experiment with UACC-257 melanoma; 93900 nM in the experiment on CCRF-CEM leukemia; 4480 nM in the experiment on SK-MEL-2 melanoma; 4120 nM with HOP-92 NSCLC; 20200 nM in the experiment with HOP-62 NSCLC. Also, the TGI in the experiment on PC-3 prostate was determined as 17600 nM; in the experiment on 786-0 renal, 3260 nM; in the experiment on EKVX NSCLC, 40700 nM; with SNB-75 CNS, 10000 nM.
`COc1ccn2c(C(C)=O)cc(C(=O)c3ccc4c(c3)Sc3ccccc3N4)c2c1`: the total growth inhibition concentration (TGI) with OVCAR-4 ovarian, in the experiment on UACC-257 melanoma, in the experiment with CCRF-CEM leukemia, with SK-MEL-2 melanoma, in the experiment on HOP-92 NSCLC and with HOP-62 NSCLC was greater than 100000 nM throughout. Besides, the total growth inhibition concentration (TGI) in the experiment on PC-3 prostate is greater than 100000 nM; with 786-0 renal it was 55100 nM; in the experiment on EKVX NSCLC, greater than 100000 nM; with SNB-75 CNS it was greater than 100000 nM. Also, the GI50 in the experiment on UACC-257 melanoma is greater than 30600 nM; in the experiment with CCRF-CEM leukemia, 135 nM; in the experiment with HOP-62 NSCLC it was 136 nM; with PC-3 prostate, 129 nM; with 786-0 renal, 145 nM; in the experiment on EKVX NSCLC, 183 nM. Also, the GI50 with SNB-75 CNS was 71.4 nM.
Turning to `O=C1/C(=C/c2ccccc2F)CNC/C1=C\c1ccccc1F`, the 50% growth inhibitory concentration (GI50) in the experiment on OVCAR-4 ovarian was 596 nM and 385 nM; in the experiment on UACC-257 melanoma, 1620 nM and 1730 nM; with CCRF-CEM leukemia, 193 nM and 314 nM; with SK-MEL-2 melanoma, 2530 nM and 2770 nM; in the experiment on HOP-92 NSCLC, 2820 nM and 1920 nM; in the experiment with HOP-62 NSCLC, 530 nM and 330 nM. In addition, the 50% growth inhibitory concentration (GI50) in the experiment with PC-3 prostate is 295 nM and 551 nM; in the experiment on 786-0 renal it was 233 nM and 739 nM; in the experiment with EKVX NSCLC it was 775 nM and 1900 nM; in the experiment with SNB-75 CNS, 2000 nM and 1540 nM. The TGI in the experiment with OVCAR-4 ovarian was 2980 nM and 1810 nM; with UACC-257 melanoma, 4160 nM and 3950 nM; in the experiment on CCRF-CEM leukemia, 3380 nM and 1610 nM; in the experiment on SK-MEL-2 melanoma, 6180 nM and 6460 nM; with HOP-92 NSCLC it was 7370 nM and 4710 nM; with HOP-62 NSCLC, 2650 nM and 1010 nM. The concentration for total growth inhibition (TGI) with PC-3 prostate is 1070 nM and 3200 nM; with 786-0 renal it was 505 nM and 2150 nM; in the experiment on EKVX NSCLC it was 2580 nM and 5260 nM; in the experiment with SNB-75 CNS, 4740 nM and 4330 nM.
As for `COc1cc2c3c(n(CCCNCC(OC)OC)c(=O)c2cc1OC)-c1cc2c(cc1C3=O)OCO2`, the GI50 with OVCAR-4 ovarian was 20100 nM; in the experiment on UACC-257 melanoma, 33300 nM; in the experiment on CCRF-CEM leukemia it was less than 10 nM; in the experiment with SK-MEL-2 melanoma, greater than 49100 nM; in the experiment on HOP-92 NSCLC, 1450 nM; in the experiment on HOP-62 NSCLC, 126 nM. In addition, the GI50 in the experiment with PC-3 prostate was 2350 nM; in the experiment with 786-0 renal, 274 nM; in the experiment with EKVX NSCLC it was 15700 nM; in the experiment with SNB-75 CNS, 17000 nM. Moreover, the TGI in the experiment on OVCAR-4 ovarian is 42700 nM; with UACC-257 melanoma, greater than 89200 nM; in the experiment with CCRF-CEM leukemia, 1800 nM; with SK-MEL-2 melanoma it was greater than 73500 nM; with HOP-92 NSCLC, 19100 nM; with HOP-62 NSCLC it was 4660 nM. The TGI with PC-3 prostate is 40600 nM; with 786-0 renal, 8750 nM; in the experiment with EKVX NSCLC, greater than 57300 nM; in the experiment on SNB-75 CNS it was greater than 59100 nM.
Consider `COC(=O)c1cc(-c2cc(OC)c(OC)c(OC)c2)[nH]c1N/N=C/c1c(Cl)cccc1Cl`, for which the GI50 was 666 nM in the experiment with OVCAR-4 ovarian; 5820 nM in the experiment on UACC-257 melanoma; 14100 nM in the experiment on CCRF-CEM leukemia; 3010 nM with SK-MEL-2 melanoma; 857 nM in the experiment with HOP-92 NSCLC; 2100 nM in the experiment with HOP-62 NSCLC. Also, the GI50 was 893 nM in the experiment with PC-3 prostate, 2030 nM with 786-0 renal, 8720 nM in the experiment on EKVX NSCLC and 941 nM with SNB-75 CNS. Besides, the TGI in the experiment on OVCAR-4 ovarian was 2680 nM; in the experiment with UACC-257 melanoma, 35700 nM; in the experiment on CCRF-CEM leukemia, greater than 100000 nM; in the experiment with SK-MEL-2 melanoma it was 17900 nM; in the experiment on HOP-92 NSCLC it was 7480 nM; with HOP-62 NSCLC, 13000 nM. Further, the total growth inhibition concentration (TGI) in the experiment with 786-0 renal was 7180 nM; in the experiment with EKVX NSCLC, 52900 nM; with SNB-75 CNS, 4620 nM.
For `CC1=CCC(OC(=O)C(C)(C)CCC(O)(C(=O)OC2(C(C)C)CCC3(C)OC3C2)C(C)C)(C(C)C)CC1` (stereo unspecified), the GI50 was 608 nM with OVCAR-4 ovarian; 727 nM in the experiment with UACC-257 melanoma; 132 nM in the experiment on CCRF-CEM leukemia; 790 nM in the experiment on SK-MEL-2 melanoma; 371 nM in the experiment on HOP-92 NSCLC; 615 nM with HOP-62 NSCLC. The GI50 in the experiment on PC-3 prostate is 281 nM; in the experiment on 786-0 renal it was 616 nM; with EKVX NSCLC it was 654 nM; with SNB-75 CNS it was 25.8 nM. Also, the TGI with OVCAR-4 ovarian is 1870 nM; with UACC-257 melanoma it was 1500 nM; with CCRF-CEM leukemia, 50000 nM; in the experiment on SK-MEL-2 melanoma, 1780 nM; in the experiment on HOP-92 NSCLC, 1570 nM; in the experiment on HOP-62 NSCLC, 1630 nM. Also, the TGI was found to be 987 nM in the experiment on PC-3 prostate, 1540 nM in the experiment on 786-0 renal, 1410 nM in the experiment with EKVX NSCLC and 1410 nM in the experiment on SNB-75 CNS.
